For the assay, the target named is T1, hGIP-R (Homo sapiens, UniProt P48546).
T1 construct: expressed in transfected cells; host or cells: HEK-293 clonal cell lines
T1 sequence (P48546 22-466): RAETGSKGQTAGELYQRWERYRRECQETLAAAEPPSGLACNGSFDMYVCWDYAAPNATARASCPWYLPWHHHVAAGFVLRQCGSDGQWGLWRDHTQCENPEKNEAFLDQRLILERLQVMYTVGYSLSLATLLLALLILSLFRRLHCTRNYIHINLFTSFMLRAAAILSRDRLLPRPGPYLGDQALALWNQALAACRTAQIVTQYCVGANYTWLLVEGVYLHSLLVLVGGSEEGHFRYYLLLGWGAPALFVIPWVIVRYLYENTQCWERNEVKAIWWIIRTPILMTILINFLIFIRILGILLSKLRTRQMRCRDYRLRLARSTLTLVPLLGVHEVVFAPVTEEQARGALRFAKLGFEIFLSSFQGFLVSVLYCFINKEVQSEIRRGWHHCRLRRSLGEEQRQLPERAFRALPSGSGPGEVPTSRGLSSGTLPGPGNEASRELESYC
In words: Functional hGIP-R Assay (cAMP formation, HTRF). The format is cell-based. Conditions: for Emax: cAMP efficacy, percent of maximal response to GIP(1-42)OH, 37° C., 0.1% bovine casein, arithmetic mean ± SEM; for EC50: cAMP potency, HEK-293 cells expressing hGIP-R, incubated at 37° C. in the presence of 0.1% bovine casein, geometric mean, read-out: Human GIP-R EC50, nM (SEM, n). The gist of the method:
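Relative EC50 and Emax came from four-parameter logistic fits of cAMP as a percent of the human GIP (1-42) OH maximal response. The cAMP was measured by competitive HTRF after 30 min, 37 °C compound exposure of hGIP-R HEK-293 clones in IBMX (250 μM)-containing medium.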
(In general: cAMP levels reflect the balance of adenylyl cyclase and phosphodiesterase activity.)

As for `Cn1cc(-c2cc(C(F)(F)F)nn2CC(C)(C)NC(=O)[C@@H](Cc2cnn(C(F)F)c2)NC(=O)[C@H]2C[C@@H]2c2nc3cnn(C)c3cc2F)cc(F)c1=O` [Example 157, (1S,2S)-N-((R)-3-(1-(Difluoromethyl)-1H-pyrazol-4-yl)-1-((1-(5-(5-fluoro-1-methyl-6-oxo-1,6-dihydropyridin-3-yl)-3-(trifluoromethyl)-1H-pyrazol-1-yl)-2-methylpropan-2-yl)amino)-1-oxopropan-2-yl)-2-(6-fluoro-1-methyl-1H-pyrazolo[4,3-b]pyridin-5-yl)cyclopropane-1-carboxamide], the maximal effect (Emax) came to 16.5 ± 0.234% and the 50% effective concentration (EC50) was 108 nM.

On to `Cc1nc(-c2cnc3nc(C4CC4)cn3c2)ccc1[C@H]1C[C@@]12CCN([C@H](Cc1cnn(C(F)F)c1)C(=O)NC(C)(C)Cn1nc(C(F)(F)F)cc1-c1cnc(C(C)(C)O)nc1)C2=O` [Example 158, (R)-2-((1R,3R)-1-(6-(2-cyclopropylimidazo[1,2-a]pyrimidin-6-yl)-2-methylpyridin-3-yl)-4-oxo-5-azaspiro[2.4]heptan-5-yl)-3-(1-(difluoromethyl)-1H-pyrazol-4-yl)-N-(1-(5-(2-(2-hydroxypropan-2-yl)pyrimidin-5-yl)-3-(trifluoromethyl)-1H-pyrazol-1-yl)-2-methylpropan-2-yl)propanamide], for which the maximal effect (Emax) was 102 ± 1.41% and the half-maximal effective concentration (EC50) turned out to be 1.23 nM.

Regarding `Cc1nc(-c2cnc3nc(C4CC4)cn3c2)ccc1[C@H]1C[C@@]12CCN([C@H](Cc1cnn(C(F)F)c1)C(=O)NC(C)(C)Cn1nc(C(F)(F)F)cc1-c1ccc(C(C)(C)O)nc1)C2=O` [Example 159, (R)-2-((1R,3R)-1-(6-(2-Cyclopropylimidazo[1,2-a]pyrimidin-6-yl)-2-methylpyridin-3-yl)-4-oxo-5-azaspiro[2.4]heptan-5-yl)-3-(1-(difluoromethyl)-1H-pyrazol-4-yl)-N-(1-(5-(6-(2-hydroxypropan-2-yl)pyridin-3-yl)-3-(trifluoromethyl)-1H-pyrazol-1-yl)-2-methylpropan-2-yl)propanamide], the maximum response (Emax) worked out at 95.3 ± 3.03% and the EC50 was found to be 0.397 nM.

With `COCc1cn2cc(-c3ccc([C@H]4C[C@@]45CCN([C@H](Cc4cnn(C(F)F)c4)C(=O)NC(C)(C)Cn4nc(C(F)(F)F)cc4-c4ccnc(C(C)(C)O)c4)C5=O)c(C)n3)cnc2n1` [Example 160, (R)-3-(1-(difluoromethyl)-1H-pyrazol-4-yl)-N-(1-(5-(2-(2-hydroxypropan-2-yl)pyridin-4-yl)-3-(trifluoromethyl)-1H-pyrazol-1-yl)-2-methylpropan-2-yl)-2-((1R,3R)-1-(6-(2-(methoxymethyl)imidazo[1,2-a]pyrimidin-6-yl)-2-methylpyridin-3-yl)-4-oxo-5-azaspiro[2.4]heptan-5-yl)propanamide], the Emax came out at 119 ± 3.76% and the EC50 turned out to be 1.24 nM.

Regarding `Cn1cc2cc(-c3ccc([C@H]4C[C@@]45CCN([C@H](Cc4cnn(C(F)F)c4)C(=O)NC(C)(C)Cn4nc(C(F)(F)F)cc4-c4ccn(C6CC6)c(=O)n4)C5=O)c(Cl)c3)cnc2n1` [Example 161, (R)-2-((1S,3R)-1-(2-chloro-4-(2-methyl-2H-pyrazolo[3,4-b]pyridin-5-yl)phenyl)-4-oxo-5-azaspiro[2.4]heptan-5-yl)-N-(1-(5-(1-cyclopropyl-2-oxo-1,2-dihydropyrimidin-4-yl)-3-(trifluoromethyl)-1H-pyrazol-1-yl)-2-methylpropan-2-yl)-3-(1-(difluoromethyl)-1H-pyrazol-4-yl)propanamide], the maximal effect (Emax) worked out at 71.7 ± 1.02% and the concentration giving a half-maximal response (EC50) worked out at 1.47 nM.

As for `Cn1cc2cc(-c3ccc([C@H]4C[C@@]45CCN([C@H](Cc4cnn(C(F)F)c4)C(=O)NC(C)(C)Cn4nc(C(F)(F)F)cc4-c4ccc(P(C)(C)=O)cc4)C5=O)c(Cl)c3)cnc2n1` [Example 162, (R)-2-((1S,3R)-1-(2-chloro-4-(2-methyl-2H-pyrazolo[3,4-b]pyridin-5-yl)phenyl)-4-oxo-5-azaspiro[2.4]heptan-5-yl)-3-(1-(difluoro-methyl)-1H-pyrazol-4-yl)-N-(1-(5-(4-(dimethyl-phosphoryl)phenyl)-3-(trifluoro-methyl)-1H-pyrazol-1-yl)-2-methylpropan-2-yl)propanamide], the Emax was determined as 50% and the EC50 turned out to be 0.179 nM.

For `Cn1cc2cc(-c3ccc([C@H]4C[C@@]45CCN([C@H](Cc4cnn(C(F)F)c4)C(=O)NC(C)(C)Cn4nc(C(F)(F)F)cc4P(C)(C)=O)C5=O)c(Cl)c3)cnc2n1` [Example 163, (R)-2-((1S,3R)-1-(2-chloro-4-(2-methyl-2H-pyrazolo[3,4-b]pyridin-5-yl)phenyl)-4-oxo-5-azaspiro[2.4]heptan-5-yl)-3-(1-(difluoro-methyl)-1H-pyrazol-4-yl)-N-(1-(5-(dimethyl-phosphoryl)-3-(trifluoro-methyl)-1H-pyrazol-1-yl)-2-methylpropan-2-yl)propanamide], the Emax stood at 109% and the EC50 was determined as 3.95 nM.

For the molecule `CCn1cc2cc(-c3ccc([C@H]4C[C@@]45CCN([C@H](Cc4cnn(C(F)F)c4)C(=O)NC(C)(C)Cn4nc(C(F)(F)F)cc4-c4cnc(C(C)(C)O)nc4)C5=O)c(C)n3)cnc2n1` [Example 164, (R)-3-(1-(difluoromethyl)-1H-pyrazol-4-yl)-2-((1R,3R)-1-(6-(2-ethyl-2H-pyrazolo[3,4-b]pyridin-5-yl)-2-methylpyridin-3-yl)-4-oxo-5-azaspiro[2.4]heptan-5-yl)-N-(1-(5-(2-(2-hydroxypropan-2-yl)pyrimidin-5-yl)-3-(trifluoromethyl)-1H-pyrazol-1-yl)-2-methylpropan-2-yl)propanamide], the maximal response (Emax) was determined as 53.3 ± 0.286% and the EC50 is 4.31 nM.

As to `Cc1cn2cc(-c3ccc([C@H]4C[C@@]45CCN([C@H](Cc4cnn(C(F)F)c4)C(=O)NC(C)(C)Cn4nc(C(F)(F)F)cc4-c4ccn(C6CC6)c(=O)c4)C5=O)c(Cl)c3)cnc2n1` [Example 165, (R)-2-((1S,3R)-1-(2-chloro-4-(2-methylimidazo[1,2-a]pyrimidin-6-yl)phenyl)-4-oxo-5-azaspiro[2.4]heptan-5-yl)-N-(1-(5-(1-cyclopropyl-2-oxo-1,2-dihydropyridin-4-yl)-3-(trifluoromethyl)-1H-pyrazol-1-yl)-2-methylpropan-2-yl)-3-(1-(difluoromethyl)-1H-pyrazol-4-yl)propanamide], the maximal effect (Emax) was determined as 65.7 ± 4.25% and the EC50 stood at 0.44 nM.

For the molecule `COCc1cn2cc(-c3ccc([C@H]4C[C@@]45CCN([C@H](Cc4cnn(C(F)F)c4)C(=O)NC(C)(C)Cn4nc(C(F)(F)F)cc4-c4ccc(C(C)(C)O)nc4)C5=O)c(C)n3)cnc2n1` [Example 168, (R)-3-(1-(difluoromethyl)-1H-pyrazol-4-yl)-N-(1-(5-(6-(2-hydroxypropan-2-yl)pyridin-3-yl)-3-(trifluoromethyl)-1H-pyrazol-1-yl)-2-methylpropan-2-yl)-2-((1R,3R)-1-(6-(2-(methoxymethyl)imidazo[1,2-a]pyrimidin-6-yl)-2-methylpyridin-3-yl)-4-oxo-5-azaspiro[2.4]heptan-5-yl)propanamide], the Emax came to 110% and the concentration for a half-maximal effect (EC50) came out at 1.81 nM.

Take `Cc1nc(-c2cnc3nn(C4CC4)cc3c2)ccc1[C@H]1C[C@@]12CCN([C@H](Cc1cnn(C(F)F)c1)C(=O)NC(C)(C)Cn1nc(C(F)(F)F)cc1-c1ccn(C3CC3)c(=O)c1)C2=O` [Example 169, (R)—N-(1-(5-(1-cyclopropyl-2-oxo-1,2-dihydropyridin-4-yl)-3-(trifluoromethyl)-1H-pyrazol-1-yl)-2-methylpropan-2-yl)-2-((1R,3R)-1-(6-(2-cyclopropyl-2H-pyrazolo[3,4-b]pyridin-5-yl)-2-methylpyridin-3-yl)-4-oxo-5-azaspiro[2.4]heptan-5-yl)-3-(1-(difluoromethyl)-1H-pyrazol-4-yl)propanamide]: the Emax is 58.9 ± 1.86% and the concentration giving a half-maximal response (EC50) is 1.15 nM.

For the molecule `Cc1nc(-c2cnc3nc(C4CC4)cn3c2)ccc1[C@H]1C[C@@]12CCN([C@H](Cc1cnn(C(F)F)c1)C(=O)NC(C)(C)Cn1nc(C(F)(F)F)cc1-c1cc(F)c(=O)n(C)c1)C2=O` [Example 170, (R)-2-((1R,3R)-1-(6-(2-cyclopropylimidazo[1,2-a]pyrimidin-6-yl)-2-methylpyridin-3-yl)-4-oxo-5-azaspiro[2.4]heptan-5-yl)-3-(1-(difluoromethyl)-1H-pyrazol-4-yl)-N-(1-(5-(5-fluoro-1-methyl-6-oxo-1,6-dihydropyridin-3-yl)-3-(trifluoromethyl)-1H-pyrazol-1-yl)-2-methylpropan-2-yl)propanamide], the maximal response (Emax) was 97.2 ± 0.998% and the concentration for a half-maximal effect (EC50) turned out to be 0.846 nM.

For the molecule `Cc1nc(-c2ccc(C(C)(C)O)nc2)ccc1[C@H]1C[C@@]12CCN([C@H](Cc1cnn(C(F)F)c1)C(=O)NC(C)(C)Cn1nc(C(F)(F)F)cc1-c1ccn(C3CC3)c(=O)c1)C2=O` [Example 171, (R)-N-(1-(5-(1-cyclopropyl-2-oxo-1,2-dihydropyridin-4-yl)-3-(trifluoromethyl)-1H-pyrazol-1-yl)-2-methylpropan-2-yl)-3-(1-(difluoromethyl)-1H-pyrazol-4-yl)-2-((1R,3R)-1-(6′-(2-hydroxypropan-2-yl)-6-methyl-[2,3′-bipyridin]-5-yl)-4-oxo-5-azaspiro[2.4]heptan-5-yl)propanamide], the Emax came out at 25.1 ± 2.38% and the EC50 was found to be 14.2 nM.

As usually defined, the Emax is the maximal effect, on the per cent scale that the assay sets. One may read the EC50 as the concentration needed to bring the measured effect to its halfway point.

Values taken from patent US20260108546A1 (ELI LILLY AND COMPANY, priority 2024, published 2026).
